Experimental data from BindingDB's records for doi:10.1021/acs.jmedchem.5b01538 (Glaxosmithkline, 2016).

Target: T1, Lysine-specific demethylase 4C (Homo sapiens, UniProt Q9H3R0)
T1 sequence (Q9H3R0 whole entry): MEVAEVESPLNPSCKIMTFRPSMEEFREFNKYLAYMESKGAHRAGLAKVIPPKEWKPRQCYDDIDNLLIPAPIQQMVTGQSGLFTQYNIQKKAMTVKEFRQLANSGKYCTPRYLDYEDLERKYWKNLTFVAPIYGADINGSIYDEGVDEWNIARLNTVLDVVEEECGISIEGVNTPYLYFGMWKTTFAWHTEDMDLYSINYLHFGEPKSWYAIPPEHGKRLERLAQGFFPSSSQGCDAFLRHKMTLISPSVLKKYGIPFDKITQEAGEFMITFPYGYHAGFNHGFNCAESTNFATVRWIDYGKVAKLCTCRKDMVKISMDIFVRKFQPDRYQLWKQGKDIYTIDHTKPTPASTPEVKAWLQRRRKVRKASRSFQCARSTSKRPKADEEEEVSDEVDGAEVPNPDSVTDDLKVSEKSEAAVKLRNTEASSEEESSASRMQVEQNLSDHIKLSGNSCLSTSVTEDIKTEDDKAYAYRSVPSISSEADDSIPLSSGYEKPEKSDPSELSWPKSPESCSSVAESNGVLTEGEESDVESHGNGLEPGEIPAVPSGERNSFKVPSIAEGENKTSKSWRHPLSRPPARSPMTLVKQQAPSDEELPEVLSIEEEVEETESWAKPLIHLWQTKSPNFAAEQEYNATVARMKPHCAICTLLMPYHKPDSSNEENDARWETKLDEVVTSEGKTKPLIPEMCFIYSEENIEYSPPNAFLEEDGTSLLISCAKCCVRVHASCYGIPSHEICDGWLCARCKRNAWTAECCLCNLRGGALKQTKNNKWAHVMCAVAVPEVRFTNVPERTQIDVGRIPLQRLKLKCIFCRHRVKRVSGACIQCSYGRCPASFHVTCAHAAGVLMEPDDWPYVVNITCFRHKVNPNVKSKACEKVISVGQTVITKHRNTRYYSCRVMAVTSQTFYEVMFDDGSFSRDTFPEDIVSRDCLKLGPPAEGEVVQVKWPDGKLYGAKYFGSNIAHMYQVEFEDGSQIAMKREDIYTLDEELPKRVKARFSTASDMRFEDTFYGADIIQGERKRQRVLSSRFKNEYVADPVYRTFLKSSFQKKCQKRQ
Assay: Inhibition of N-terminal his-tagged full-length human KDM4C transfected in U2OS cells assessed as inhibition of H3K9Me3 demethylation for 24 hrs

| Compound | IC50 [µM] |
| --- | --- |
| CC(C)c1ccc(Oc2nc3cnccc3c(=O)[nH]2)cn1 | 3.98 |
| O=c1[nH]c(Oc2ccc(Cl)c(O)c2)nc2cnccc12 | 3.98 |
